The source of these data is PMC12441857, “Cannabinoid CB1 Receptor Activation Mitigates N‑Methyl‑D‑aspartate Receptor-Mediated Neurotoxicity” (ACS Pharmacology & Translational Science, 2025).

This test concerns the target T1, cannabinoid CB1 receptor (CB1R) (Homo sapiens, UniProt P21554).
T1 construct: gene CNR1; SNAP-tagged CB1R in HEK-293T cells
The experiment in a line: HTRF (Tag-lite) competition binding against fluorescent CELT-335. Format: cell-based. (In general: In TR-FRET formats the signal depends on donor and acceptor labels being close together.)

By Ki is commonly meant the dissociation constant of the complex between target and ligand, obtained from inhibition or displacement. Low values mean higher affinity, high ones lower affinity.

T1 sequence (P21554 whole entry): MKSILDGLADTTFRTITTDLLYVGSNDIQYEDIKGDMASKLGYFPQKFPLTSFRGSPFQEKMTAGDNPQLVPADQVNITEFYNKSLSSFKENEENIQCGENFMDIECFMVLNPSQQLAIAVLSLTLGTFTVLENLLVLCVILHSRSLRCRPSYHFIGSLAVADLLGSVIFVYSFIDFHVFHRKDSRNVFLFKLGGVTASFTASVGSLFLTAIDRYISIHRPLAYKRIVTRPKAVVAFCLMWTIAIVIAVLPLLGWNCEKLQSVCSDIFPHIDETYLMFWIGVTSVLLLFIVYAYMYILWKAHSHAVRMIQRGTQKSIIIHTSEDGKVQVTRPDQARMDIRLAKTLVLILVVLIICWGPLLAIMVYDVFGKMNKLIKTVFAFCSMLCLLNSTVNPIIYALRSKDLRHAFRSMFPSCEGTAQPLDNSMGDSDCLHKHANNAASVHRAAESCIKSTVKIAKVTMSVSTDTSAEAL

Regarding `CCCCC/C=C\C/C=C\C/C=C\C/C=C\CCCC(=O)NCCCl` [ACEA], the Ki amounted to 4.8 nM.
